Laboratory results as given in ChEMBL document CHEMBL1141871, “Binding of amine-substituted N1-benzenesulfonylindoles at human 5-HT6 serotonin receptors” (Bioorg Med Chem Lett, 2005).
pKi: −log10 of the molar value.

Target: 5-hydroxytryptamine receptor 6 (Homo sapiens, UniProt P50406)
Experiment: Displacement of [3H]LSD from human 5HT6 receptor expressed in HEK293 cells
Type: cell-based

5-hydroxytryptamine receptor 6, sequence (P50406 whole entry): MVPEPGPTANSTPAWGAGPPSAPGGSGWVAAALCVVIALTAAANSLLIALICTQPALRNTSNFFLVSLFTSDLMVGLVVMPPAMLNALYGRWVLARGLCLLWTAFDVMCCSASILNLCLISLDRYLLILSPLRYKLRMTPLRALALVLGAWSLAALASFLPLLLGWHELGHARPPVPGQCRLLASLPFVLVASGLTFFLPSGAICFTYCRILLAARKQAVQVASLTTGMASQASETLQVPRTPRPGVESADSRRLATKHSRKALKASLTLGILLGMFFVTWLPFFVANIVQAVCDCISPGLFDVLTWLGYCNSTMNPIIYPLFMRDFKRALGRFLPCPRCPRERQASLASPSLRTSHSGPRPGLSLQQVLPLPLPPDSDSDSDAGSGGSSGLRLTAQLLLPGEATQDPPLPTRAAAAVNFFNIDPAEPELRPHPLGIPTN

Row | Compound | pKi
1 | CNc1cc(NC)c2ccn(S(=O)(=O)c3ccccc3)c2c1 | 7.59
2 | c1cc(N2CCNCC2)c2cc[nH]c2c1 | 5.57
3 | Nc1ccc(S(=O)(=O)n2ccc3c(N4CCNCC4)cccc32)cc1 | 9.40
4 | Nc1ccc(S(=O)(=O)n2ccc3c([N+](=O)[O-])cc([N+](=O)[O-])cc32)cc1 | 6.01

Results, then the compound that gave them:

Row | pKi | Compound
5 | 8.00 | Nc1ccc(S(=O)(=O)n2ccc3ccccc32)cc1
6 | 8.72 | CNc1cc(NC)c2ccn(S(=O)(=O)c3ccc(N)cc3)c2c1
7 | 7.68 | CNc1cccc2c1ccn2S(=O)(=O)c1ccc(N)cc1
8 | 8.15 | CNc1ccc2ccn(S(=O)(=O)c3ccc(N)cc3)c2c1
